Reference: patent publication US20210284668A1, “GOLD (I)-PHOSPHINE 1,2,3-TRIAZOLE DERIVATIVES WITH ANTIBIOTIC PROPERTIES” (Centre National de la Recherche Scientifique, priority 2018, published 2021)
Where “and” joins values, the source holds several entries; their conditions need not be identical. Equal entries are not always repeated.

Legend:
E. faecalis JH2-2 = test: MIC by microdilution, E. faecalis JH2-2; assay type: cell-based, Enterococcus faecalis; parameters: unit not given here; settings: E. faecalis JH2-2 (wild-type), in duplicate
Method in brief: (§1)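 Broth microdilution per CLSI document M07-A10, Mueller-Hinton medium, each MIC run in duplicate. Strains include E. coli ATCC25922 (wild-type), S. epidermidis ATCC35984 (MecA positive) and S. aureus ATCC700699 (MecA positive, glycopeptide resistant), within a mixed panel of susceptible and resistant Gram-positive/Gram-negative bacteria.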

E. faecalis V583 = test: MIC by microdilution, E. faecalis V583; assay type: cell-based, Enterococcus faecalis; settings: E. faecalis V583 (VanB positive, glycopeptide resistant), in duplicate
Method in brief: as §1

S. aureus ATCC29213 = test: MIC by microdilution, S. aureus ATCC29213; assay type: cell-based, Staphylococcus aureus; settings: S. aureus ATCC29213 (MecA negative, wild-type), Mueller-Hinton broth, in duplicate
Method in brief: as §1

E. coli ATCC25922 = test: MIC by microdilution, E. coli ATCC25922; assay type: cell-based, Escherichia coli; settings: E. coli ATCC25922 (wild-type), in duplicate
Method in brief: as §1

[1] = test system: S. epidermidis ST20140436; test: MIC by microdilution, S. epidermidis ST20140436; assay type: cell-based, Staphylococcus epidermidis; settings: S. epidermidis ST20140436 (MecA positive, glycopeptide resistant), in duplicate
Method in brief: as §1

[2] = test system: panel of Gram-positive and Gram-negative strains; test: Antibacterial profile on the selected panel of strains; assay type: cell-based; settings: summary of Tables 1-12
Method in brief: as §1

S. aureus ST20131365 = test: MIC by microdilution, S. aureus ST20131365; assay type: cell-based, Staphylococcus aureus; settings: S. aureus ST20131365 (MecA positive, glycopeptide resistant), in duplicate
Method in brief: as §1

S. epidermidis ATCC14990 = test: MIC by microdilution, S. epidermidis ATCC14990; assay type: cell-based, Staphylococcus epidermidis; settings: S. epidermidis ATCC14990 (MecA negative, wild-type), in duplicate
Method in brief: as §1

[3] = test system: Clostridium difficile ATCC700057; test: MIC by microdilution, Clostridium difficile; assay type: cell-based; settings: strain ATCC70057 [sic] (Tables 1-2) / ATCC700057 (Tables 3-10), in duplicate
S. aureus ATCC25923 = test: MIC by microdilution, S. aureus ATCC25923; assay type: cell-based, Staphylococcus aureus; settings: S. aureus ATCC25923 (MecA negative, wild-type), Mueller-Hinton broth, in duplicate
Method in brief: as §1

E. faecium AUS0004 = test: MIC by microdilution, E. faecium AUS0004; assay type: cell-based, Enterococcus faecium; settings: E. faecium AUS0004 (VanB positive, glycopeptide resistant), in duplicate
Method in brief: as §1

E. faecium ATCC19434T = test: MIC by microdilution, E. faecium ATCC19434T; assay type: cell-based, Enterococcus faecium; parameters: unit not given here; settings: E. faecium ATCC19434T (wild-type), in duplicate
Method in brief: as §1

S. aureus ATCC700699 = test: MIC by microdilution, S. aureus ATCC700699; assay type: cell-based, Staphylococcus aureus; parameters: unit not given here; settings: S. aureus ATCC700699 (MecA positive, glycopeptide resistant), in duplicate
Method in brief: as §1

E. faecalis UCN41 = test: MIC by microdilution, E. faecalis UCN41; assay type: cell-based, Enterococcus faecalis; parameters: unit not given here; settings: E. faecalis UCN41 (VanA positive, glycopeptide resistant), in duplicate
Method in brief: as §1

E. faecium BM4147 = test: MIC by microdilution, E. faecium BM4147; assay type: cell-based, Enterococcus faecium; parameters: unit not given here; settings: E. faecium BM4147 (VanA positive, glycopeptide resistant), in duplicate
Method in brief: as §1

S. epidermidis ATCC35984 = test: MIC by microdilution, S. epidermidis ATCC35984; assay type: cell-based, Staphylococcus epidermidis; settings: S. epidermidis ATCC35984 (MecA positive), in duplicate
Method in brief: as §1

[4] = test system: S. epidermidis ST20150446; test: MIC by microdilution, S. epidermidis ST20150446; assay type: cell-based, Staphylococcus epidermidis; settings: S. epidermidis ST20150446 (MecA positive, glycopeptide resistant), in duplicate
Method in brief: as §1

SMILES	Minimal Inhibitory Concentration (MIC) (E. faecalis JH2-2)	Minimal Inhibitory Concentration (MIC) (E. faecalis V583)	Minimal Inhibitory Concentration (MIC) (S. aureus ATCC29213)	Minimal Inhibitory Concentration (MIC) (E. coli ATCC25922)	Minimal Inhibitory Concentration (MIC) [1]	antimicrobial / antibacterial activity (in words) [2]	Minimal Inhibitory Concentration (MIC) (S. aureus ST20131365)	Minimal Inhibitory Concentration (MIC) (S. epidermidis ATCC14990)	Minimal Inhibitory Concentration (MIC) [3]	Minimal Inhibitory Concentration (MIC) (S. aureus ATCC25923)	Minimal Inhibitory Concentration (MIC) (E. faecium AUS0004)	Minimal Inhibitory Concentration (MIC) (E. faecium ATCC19434T)	Minimal Inhibitory Concentration (MIC) (S. aureus ATCC700699)	Minimal Inhibitory Concentration (MIC) (E. faecalis UCN41)	Minimal Inhibitory Concentration (MIC) (E. faecium BM4147)	Minimal Inhibitory Concentration (MIC) (S. epidermidis ATCC35984)	Minimal Inhibitory Concentration (MIC) [4]
CC1(C)S[C@@H]2[C@H](NC(=O)[C@H](NC(=O)OCc3cnn[nH]3)c3ccccc3)C(=O)N2[C@H]1C(=O)O [TMB5]	2 and 4	4	2	>8	8/>8	do not show an antibacterial activity	>8	1	4	2	>8	8	>8	8	>8	>8	>8
CC[P+](CC)(CC)[Au-][c]1nn[nH]c1COC(=O)NC(C(=O)O)c1ccccc1 (centres unmarked) [TMB1]	0.25 and 0.5	0.5 and 1	0.125	>8	≤0.06	have antimicrobial activity	0.125	≤0.06	≤0.06	0.125	0.5	0.5	0.125 and 0.25	0.5	1	≤0.06	≤0.06
CC[P+](CC)(CC)[Au-][c]1nn[nH]c1CCC(=O)NC(C(=O)NC1C(=O)N2C1SC(C)(C)C2C(=O)O)c1ccccc1 (centres unmarked) [TMB4]	–	0.5	0.125	>8	≤0.06	have antimicrobial activity	0.125	≤0.06	≤0.06-0.125	0.125	0.5	0.5	0.125	0.5	1	≤0.06	0.125
CC[P+](CC)(CC)[Au-][c]1nn[nH]c1COC(=O)NC(C(=O)NC)c1ccccc1 (centres unmarked) [TMB8]	1	2	0.25	>8	0.125	have antimicrobial activity	0.25 and 0.5	≤0.06	≤0.06-0.125	0.25	2	1 and 2	0.25 and 0.5	1 and 2	2	≤0.06	0.125
CC[P+](CC)(CC)[Au-][c]1nn[nH]c1CC(N)C(=O)O (centres unmarked) [TMB37]	0.5	0.5	0.125 and 0.25	>8	0.125	have antimicrobial activity	0.25	≤0.06	≤0.06	0.125	0.5	0.5	0.25	0.5	0.5	≤0.06	0.125
CC[P+](CC)(CC)[Au-][c]1nn[nH]c1COC(=O)N[C@@H](CCCNC(=N)N[N+](=O)[O-])C(=O)O [TMB35]	1	1	0.25	>8	0.125	have antimicrobial activity	0.25	≤0.06	0.125	0.125	1	0.5	0.25	1	1	–	0.125 and 0.25
CC[P+](CC)(CC)[Au-][c]1nn[nH]c1CCC(=O)O [TMB19]	0.125 and 0.25	0.125 and 0.25	0.125	>8	≤0.06	have antimicrobial activity	0.125	≤0.06	≤0.06	–	0.125	0.125 and 0.25	0.125 and 0.25	0.125 and 0.25	0.25	≤0.06	≤0.06
